Laboratory results taken from patent US11447445B2, “Diabetes and metabolic syndrome treatment with a novel dual modulator of soluble epoxide hydrolase and peroxisome proliferator-activated receptors” (priority 2015, dated 2022).
Read-outs that look alike come from different tables or passages of the source.

Key:
PPARα = molecular target: T1, PPARα (Homo sapiens, UniProt Q07869); format: cell-based; conditions: for PPARα activation @10 μM: at 10 μM
T1 construct: expressed in transfected cells; host or cells: COS-7
Protocol: (§1) COS-7 cells (PPAR) were grown in DMEM high glucose, supplemented with 10% fetal calf serum (FCS), 1% sodium pyruvate (SP) and 1% penicillin/streptomycin (PS) at 37° C. and 5% CO2. Used plasmids for PPAR transactivation assay are shown under supporting informations.
(§2) The day before transfection, COS-7 cells were seeded in 96-well plates with a density of 30,000 cells per well. Transient transfection was carried out using Lipofectamine LTX reagent (Invitrogen, Carlsbad, Calif., USA) according to the manufacturer's protocol with pFR-Luc (Stratagene), pRL-SV40 (Promega) and the Ga14-fusion receptor plasmids (pFA-CMV-hPPAR-LBD) of the respective PPAR subtype. 5 h after transfection, medium was changed to DMEM without phenol red and 10% FCS, supplemented with 1% SP, 1% PS and 1% L-glutamine, now additionally containing 0.1% DMSO and the respective test compound or 0.1% DMSO alone as untreated control. Each concentration was tested in triplicate wells and each experiment was repeated independently at least three times. Following overnight incubation with the test compounds, cells were assayed for luciferase activity using Dual-Glo™ Luciferase Assay System (Promega) according to the manufacturer's protocol. Luminescence was measured with an Infinite m200 luminometer (Tecan Deutschland GmbH). Each concentration of the compounds was tested in triplicate wells. Normalization for transfection efficacy and cell growth was done by division of the firefly luciferase data by renilla luciferase data resulting in relative light units. Activation factors were obtained by dividing by DMSO control. […] All compounds were evaluated by comparison of the achieved maximum effect to that of the reference compound (pioglitazone for PPARγ, GW7647 for PPARa, and L165041 for PPARS each with 1 μM). Data are expressed as mean±SE; n≥3.
(§3) The Gal4-fusion receptor plasmids pFA-CMV-PPARa-LBD, pFA-CMV-PPARS-LBD and pFA-CMV-PPARγ-LBD containing the hinge region and ligand binding domain (LBD) for each of the PPAR subtypes, respectively, were constructed by integrating cDNA fragments obtained from PCR amplification of human monocytes into the SmaI/XbaI cleavage site of the pFA-CMV vector (Stratagene, La Jolla, Calif., USA) and have already been published. […] Frame and sequence of the fusion receptors were verified by sequencing. pFR-Luc (Stratagene) was used as reporter plasmid and pRL-SV40 (Promega) for normalization of transfection efficacy and cell growth.

PPARδ = molecular target: T2, PPARδ (Homo sapiens, UniProt Q03181); experiment: PPAR transactivation assay in COS-7 cells (Gal4-hPPAR-LBD, luciferase); format: cell-based
T2 construct: expressed in transfected cells; host or cells: COS-7
Protocol: as §1, §2, §3

recombinant human sEH = molecular target: T3, recombinant human sEH (Homo sapiens, UniProt P34913); experiment: biochemical; conditions: read-out: IC50 sEH (converted)
T3 sequence (P34913 1-555): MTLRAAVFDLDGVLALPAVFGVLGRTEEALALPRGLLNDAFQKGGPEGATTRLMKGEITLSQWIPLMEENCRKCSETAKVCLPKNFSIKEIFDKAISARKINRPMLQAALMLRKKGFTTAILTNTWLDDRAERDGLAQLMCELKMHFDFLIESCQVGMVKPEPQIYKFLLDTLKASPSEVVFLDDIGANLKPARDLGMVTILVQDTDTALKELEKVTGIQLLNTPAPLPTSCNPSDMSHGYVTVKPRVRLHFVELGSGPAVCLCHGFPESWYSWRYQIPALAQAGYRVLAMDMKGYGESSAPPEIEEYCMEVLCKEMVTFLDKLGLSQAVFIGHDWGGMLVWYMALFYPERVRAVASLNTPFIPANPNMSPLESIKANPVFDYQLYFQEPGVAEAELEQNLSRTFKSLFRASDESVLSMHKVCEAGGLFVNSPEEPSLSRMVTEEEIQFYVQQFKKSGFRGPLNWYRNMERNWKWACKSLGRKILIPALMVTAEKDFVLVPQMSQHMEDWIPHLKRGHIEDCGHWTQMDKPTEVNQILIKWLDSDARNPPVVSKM

T2 sequence (Q03181 211-439): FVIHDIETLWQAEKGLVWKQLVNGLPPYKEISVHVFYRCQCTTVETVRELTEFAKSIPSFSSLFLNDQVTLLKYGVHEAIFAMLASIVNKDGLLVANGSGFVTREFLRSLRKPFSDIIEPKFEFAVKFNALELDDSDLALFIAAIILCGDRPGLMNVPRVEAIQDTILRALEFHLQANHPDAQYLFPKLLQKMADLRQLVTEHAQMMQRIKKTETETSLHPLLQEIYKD
T1 sequence (Q07869 239-466): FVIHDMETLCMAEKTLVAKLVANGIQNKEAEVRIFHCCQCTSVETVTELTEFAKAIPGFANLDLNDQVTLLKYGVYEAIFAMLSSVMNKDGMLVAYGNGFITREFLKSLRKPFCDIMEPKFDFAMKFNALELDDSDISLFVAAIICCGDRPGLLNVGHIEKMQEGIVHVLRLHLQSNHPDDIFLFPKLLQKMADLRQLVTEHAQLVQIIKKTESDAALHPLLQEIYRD

SMILES	IC50 (recombinant human sEH) [nM]	other results
CCOC(=O)C(CC)Cc1ccc(C(=O)NCc2ccccc2Cl)cc1 (centres unmarked) [Compound 4b, Ethyl 2-ethyl 3-[4-(N-((2-chloro)benzyl)benzamide)]propanoate]		EC50 PPARα (PPARα; i.a. = inactive): n.t. i.a. i.a. n.t.; EC50 PPARδ (PPARδ; i.a. = inactive): n.t. i.a. i.a. n.t.
CC/C(=C\c1ccc(C(=O)NCc2ccc(Oc3ccccc3)cc2)cc1)C(=O)O [Compound 12d, (E)-4-[N-((4-Phenoxy)benzyl)benzamide]-alpha-ethylcinnamic acid]	800	
CCOC(=O)C(CC)Cc1ccc(C(=O)NCc2ccccc2C)cc1 (centres unmarked) [Compound 3b, Ethyl 2-ethyl 3-[4-(N-((2-methyl)benzyl)benzamide)]propanoate]		PPARα activation @10 μM (PPARα; compared to GW7647 1 μM): 15%; EC50 PPARδ (PPARδ; i.a. = inactive): n.t. i.a. i.a. n.t.
CCOC(=O)C(CC)Cc1ccc(C(=O)NCc2ccccc2)cc1 (centres unmarked) [Compound 2b, Ethyl 2-ethyl 3-[4-(N-benzylbenzamide)]propanoate]		EC50 PPARα (PPARα): n.t. i.a. i.a. n.t.; EC50 PPARδ (PPARδ): n.t. i.a. i.a. n.t.
CC/C(=C\c1ccc(C(=O)NCc2ccccc2C)cc1)C(=O)O [Compound 3d, (E)-4-[N-((2-Methyl)benzyl)benzamide]-alpha-ethylcinnamic acid]	10000	
CC/C(=C\c1ccc(C(=O)NCc2ccccc2)cc1)C(=O)O [Compound 2d, (E)-4-[N-Benzylbenzamide]-alpha-ethylcinnamic acid]	9300	
CC/C(=C\c1ccc(C(=O)NCc2ccc(OC)cc2)cc1)C(=O)O [Compound 10d, (E)-4-[N-((4-Methoxy)benzyl)benzamide]-alpha-ethylcinnamic acid]	13000	
CC/C(=C\c1ccc(C(=O)NCc2ccccc2Br)cc1)C(=O)O [Compound 5d, (E)-4-[N-((2-Bromo)benzyl)benzamide]-alpha-ethylcinnamic acid]	2400	
CCOC(=O)/C(=C/c1ccc(C(=O)NCc2ccc(F)cc2C(F)(F)F)cc1)CC [Compound 13a]	100 ± 10	
CCC(Cc1ccc(C(=O)NCc2ccc(C(F)(F)F)cc2)cc1)C(=O)O (centres unmarked) [Compound 8c, 2-Ethyl 3-[4-(N-((4-trifluoromethyl)benzyl)benzamide)]propionic acid]		EC50 PPARδ (PPARδ; i.a. = inactive): n.t. i.a. i.a. n.t.
CC/C(=C\c1ccc(C(=O)NCc2ccc(F)cc2C(F)(F)F)cc1)C(=O)O [Compound 13d, (E)-4-[N-((4-Fluoro(2-trifluoromethyl))benzyl)benzamide]-alpha-ethylcinnamic acid]	1200	
CC/C(=C\c1cccc(C(=O)NCc2ccccc2C(F)(F)F)c1)C(=O)O [Compound 15d, (E)-3-[N-((2-Trifluoromethyl)benzyl)benzamide]-alpha-ethylcinnamic acid]	400 ± 100	
CCOC(=O)/C(=C/c1ccc(C(=O)NCc2ccc(Oc3ccccc3)cc2)cc1)CC [Compound 12a, Ethyl (E)-4-[N-((4-phenoxy)benzyl)benzamide]-alpha-ethylcinnamate]	1400 ± 60	
CCOC(=O)/C(=C/c1ccc(C(=O)NCc2ccc(F)cc2)cc1)CC [Compound 7a, Ethyl (E)-4-[N-((4-fluoro)benzyl)benzamide]-alpha-ethylcinnamate]	62 ± 3	
CCC(Cc1ccc(C(=O)NCc2ccc(F)cc2C(F)(F)F)cc1)C(=O)O (centres unmarked) [Compound 13c, 2-Ethyl 3-[4-(N-(4-fluoro(2-trifluoromethyl)benzyl)benzamide)]propionic acid]		EC50 PPARα (PPARα; i.a. = inactive): n.t. i.a. i.a. n.t.; EC50 PPARδ (PPARδ; i.a. = inactive): n.t. i.a. i.a. n.t.
CCOC(=O)C(CC)Cc1ccc(C(=O)NCc2ccc(F)cc2C(F)(F)F)cc1 (centres unmarked) [Compound 13b, Ethyl 2-ethyl 3-[4-(N-(4-fluoro(2-trifluoromethyl)benzyl)benzamide)]propanoate]		EC50 PPARα (PPARα; i.a. = inactive): n.t. i.a. i.a. n.t.; EC50 PPARδ (PPARδ; i.a. = inactive): n.t. i.a. i.a. n.t.
CC/C(=C\c1ccc(C(=O)NCc2ccccc2Cl)cc1)C(=O)O [Compound 4d, (E)-4-[N-((2-Chloro)benzyl)benzamide]-alpha-ethylcinnamic acid]	2800	

SMILES	IC50 (recombinant human sEH) [nM]	other results
CCOC(=O)/C(=C/c1ccc(C(=O)NCc2ccccc2Cl)cc1)CC [Compound 4a, Ethyl (E)-4-[N-((2-chloro)benzyl)benzamide]-alpha-ethylcinnamate]	410 ± 140	
CCOC(=O)/C(=C/c1ccc(C(=O)NCc2ccc(C(F)(F)F)cc2)cc1)CC [Compound 8a, Ethyl (E)-4-[N-((4-trifluoromethyl)benzyl)benzamide]-alpha-ethylcinnamate]	550 ± 60	
CCOC(=O)/C(=C/c1cccc(C(=O)NCc2ccccc2C(F)(F)F)c1)CC [Compound 15a, Ethyl (E)-3-[N-((2-trifluoromethyl)benzyl)benzamide]-alpha-ethylcinnamate]	40 ± 6	
CCC(Cc1ccc(C(=O)NCc2ccc(OC(F)(F)F)cc2)cc1)C(=O)O (centres unmarked) [Compound 9c, 2-Ethyl 3-[4-(N-((4-trifluoromethoxy)benzyl)benzamide)]propionic acid]		EC50 PPARδ (PPARδ; i.a. = inactive): n.t. i.a. i.a. n.t.
CCOC(=O)C(CC)Cc1ccc(C(=O)NCc2ccc(C(F)(F)F)cc2)cc1 (centres unmarked) [Compound 8b, Ethyl 2-ethyl 3-[4-(N-((4-trifluoromethyl)benzyl)benzamide)]propanoate]		PPARα activation @10 μM (PPARα; compared to GW7647 1 μM): 22%; EC50 PPARδ (PPARδ; i.a. = inactive): n.t. i.a. i.a. n.t.
CCOC(=O)C(CC)Cc1ccc(C(=O)NCc2ccc(F)cc2)cc1 (centres unmarked) [Compound 7b, Ethyl 2-ethyl 3-[4-(N-((4-fluoro)benzyl)benzamide)]propanoate]		EC50 PPARα (PPARα): n.t. i.a. i.a. n.t.; EC50 PPARδ (PPARδ): n.t. i.a. i.a. n.t.
CCOC(=O)C(CC)Cc1ccc(C(=O)NCc2ccc(Oc3ccccc3)cc2)cc1 (centres unmarked) [Compound 12b, Ethyl 2-ethyl 3-[4-(N-((4-phenoxy)benzyl)benzamide)]propanoate]		Emax-% PPARα (maximum activation in percent) (PPARα; compared to GW7647 1 μM): 110%; EC50 PPARδ (PPARδ; i.a. = inactive): i.a.
CCOC(=O)/C(=C/c1ccc(C(=O)NCc2ccc(OC(F)(F)F)cc2)cc1)CC [Compound 9a, Ethyl (E)-4-[N-((4-trifluoromethoxy)benzyl)benzamide]-alpha-ethylcinnamate]	880 ± 100	
CC/C(=C\c1ccc(C(=O)NCc2ccccc2OC(F)(F)F)cc1)C(=O)O [Compound 6d, (E)-4-[N-((2-Trifluoromethoxy)benzyl)benzamide]-alpha-ethylcinnamic acid]	900	
CC/C(=C\c1ccc(C(=O)NCc2ccc(F)cc2)cc1)C(=O)O [Compound 7d, (E)-4-[N-((4-Fluoro)benzyl)benzamide]-alpha-ethylcinnamic acid]	6700	
CC/C(=C\c1ccc(C(=O)NCc2ccc(OC)cc2C(F)(F)F)cc1)C(=O)O [Compound 14d]	400	
CC/C(=C\c1ccc(C(=O)NCc2ccc(OC(F)(F)F)cc2)cc1)C(=O)O [Compound 9d, (E)-4-[N-((4-Trifluoromethoxy)benzyl)benzamide]-alpha-ethylcinnamic acid]	1600	
CCOC(=O)/C(=C/c1ccc(C(=O)NCc2ccc(OC)cc2C(F)(F)F)cc1)CC [Compound 14a]	50 ± 9	
CCOC(=O)/C(=C/c1ccc(C(=O)NCc2ccccc2Br)cc1)CC [Compound 5a, Ethyl (E)-4-[N-((2-bromo)benzyl)benzamide]-alpha-ethylcinnamate]	300 ± 80	
CCOC(=O)C(CC)Cc1ccc(C(=O)NCc2ccc(OC(F)(F)F)cc2)cc1 (centres unmarked) [Compound 9b, Ethyl 2-ethyl 3-[4-(N-((4-trifluoromethoxy)benzyl)benzamide)]propanoate]		EC50 PPARδ (PPARδ; i.a. = inactive): n.t. i.a. i.a. n.t.
CCOC(=O)/C(=C/c1ccc(C(=O)NCc2ccccc2C)cc1)CC [Compound 3a, Ethyl (E)-4-[N-((2-methyl)benzyl)benzamide]-alpha-ethylcinnamate]	760 ± 50	
